Patent publication US11814367B2, “Inhibitors of glycogen synthase 1 (GYS1) and methods of use thereof” (Maze Therapeutics, Inc., priority 2021, dated 2023)

How the values were obtained:
[1] = target: hGYS1 enzyme (recombinant hGYS1/GN1 protein) (Homo sapiens (Human), UniProt P13807); experiment: GYS1 coupled enzyme assay (PK/LDH); type: biochemical; settings: hGYS1/GN1 50 nM, UDP-Glucose 0.8 mM, G6P 1 mM; geometric mean of at least 2 runs
[2] = tested on: hGYS1 enzyme / glycogen synthesis in HeLa cells; experiment: GYS1 cell based assay (glycogen synthesis, Glucose-glo); set-up: species or system human; settings: Homo sapiens, HeLa, 24 h, 24 h incubation, 20 mM glucose, geometric mean of at least 2 runs
Summary of the method: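 HeLa cells starved 24 h in medium containing only 1× Glutamax were plated onto compound in medium with 20 mM glucose (1% DMSO final) for 24 h, 37 °C, 5% CO2. Acid lysates were Tris-quenched, glucoamylase-digested (pH 5.3, 1 h, 37 °C) and read by Glucose-glo luminescence. IC50 came from Hill fits, as geometric mean of ≥2 runs.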

[3] = target: hGYS2 enzyme (recombinant hGYS2/GN1 protein) (Homo sapiens (Human), UniProt P54840); experiment: GYS2 coupled enzyme assay (PK/LDH); type: biochemical; settings: geometric mean of at least 2 assay runs on separate days, read-out: Avg_IC50
Summary of the method: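 hGYS2/GN1 200 nM; UDP-Glc 2 mM; glycogen 0.2%; G6P 2 mM; PEP 2 mM, NADH 0.6 mM, PK/LDH 20 U/mL. 50 mM Tris pH 7.5, MgCl2, KCl, BSA, TCEP, 2.5% DMSO. Kinetic A340, 10 min. IC50 = geomean of ≥2 runs.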

Sequence of hGYS2 enzyme (recombinant hGYS2/GN1 protein) (P54840 whole entry): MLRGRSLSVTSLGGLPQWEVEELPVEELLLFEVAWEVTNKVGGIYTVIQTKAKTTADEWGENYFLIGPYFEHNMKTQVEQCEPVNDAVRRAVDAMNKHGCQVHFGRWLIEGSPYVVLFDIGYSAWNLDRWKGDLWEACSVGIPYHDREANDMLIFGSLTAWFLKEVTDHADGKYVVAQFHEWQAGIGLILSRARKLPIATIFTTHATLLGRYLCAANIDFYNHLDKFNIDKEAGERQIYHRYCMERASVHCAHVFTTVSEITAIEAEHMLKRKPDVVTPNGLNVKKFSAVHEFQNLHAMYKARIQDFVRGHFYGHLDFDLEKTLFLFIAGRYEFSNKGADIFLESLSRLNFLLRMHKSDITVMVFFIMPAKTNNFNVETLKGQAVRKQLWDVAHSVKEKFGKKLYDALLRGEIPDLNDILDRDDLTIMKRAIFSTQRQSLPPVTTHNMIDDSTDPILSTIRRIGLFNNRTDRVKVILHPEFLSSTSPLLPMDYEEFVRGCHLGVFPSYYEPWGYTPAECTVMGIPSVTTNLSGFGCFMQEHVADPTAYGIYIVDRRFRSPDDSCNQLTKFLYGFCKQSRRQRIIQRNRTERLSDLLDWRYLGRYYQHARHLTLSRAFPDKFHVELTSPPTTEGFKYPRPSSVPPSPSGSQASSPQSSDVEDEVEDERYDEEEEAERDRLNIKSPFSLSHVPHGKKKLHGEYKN
Sequence of hGYS2 enzyme (recombinant hGYS2/GN1 protein) (P46976 whole entry partner): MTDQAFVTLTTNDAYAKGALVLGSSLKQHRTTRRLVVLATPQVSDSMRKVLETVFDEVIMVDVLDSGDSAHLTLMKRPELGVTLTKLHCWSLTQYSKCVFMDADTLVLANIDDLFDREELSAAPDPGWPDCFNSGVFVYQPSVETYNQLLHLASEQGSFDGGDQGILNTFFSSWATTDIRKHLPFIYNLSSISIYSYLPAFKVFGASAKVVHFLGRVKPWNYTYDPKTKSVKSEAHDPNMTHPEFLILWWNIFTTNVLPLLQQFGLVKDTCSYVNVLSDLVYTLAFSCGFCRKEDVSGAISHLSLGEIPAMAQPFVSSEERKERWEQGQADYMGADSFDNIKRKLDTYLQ
Sequence of hGYS1 enzyme (recombinant hGYS1/GN1 protein) (P13807 whole entry): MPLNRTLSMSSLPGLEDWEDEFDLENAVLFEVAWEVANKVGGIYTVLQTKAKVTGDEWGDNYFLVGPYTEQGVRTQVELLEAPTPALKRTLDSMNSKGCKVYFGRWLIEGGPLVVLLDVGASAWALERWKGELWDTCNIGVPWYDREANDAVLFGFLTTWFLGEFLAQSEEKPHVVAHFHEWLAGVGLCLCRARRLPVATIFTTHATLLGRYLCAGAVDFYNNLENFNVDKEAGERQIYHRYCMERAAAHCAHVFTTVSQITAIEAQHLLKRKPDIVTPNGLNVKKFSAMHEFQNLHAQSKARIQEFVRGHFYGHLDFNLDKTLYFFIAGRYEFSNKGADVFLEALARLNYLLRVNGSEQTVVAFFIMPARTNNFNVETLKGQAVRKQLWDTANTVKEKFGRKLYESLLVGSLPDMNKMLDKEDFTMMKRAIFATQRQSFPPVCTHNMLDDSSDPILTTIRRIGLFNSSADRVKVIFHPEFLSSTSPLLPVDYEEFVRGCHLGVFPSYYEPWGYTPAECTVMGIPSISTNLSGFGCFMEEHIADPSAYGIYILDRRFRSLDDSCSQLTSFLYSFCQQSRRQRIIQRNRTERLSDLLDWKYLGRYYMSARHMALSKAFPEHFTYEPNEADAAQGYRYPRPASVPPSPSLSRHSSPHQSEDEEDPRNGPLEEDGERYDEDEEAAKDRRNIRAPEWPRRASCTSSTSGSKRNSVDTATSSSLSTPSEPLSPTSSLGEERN
Sequence of hGYS1 enzyme (recombinant hGYS1/GN1 protein) (P46976 whole entry partner): as the sequence (P46976 whole entry partner) above

Structure (SMILES)	IC50 [1] [nM]	IC50 [2] [nM]	IC50 [3] [nM]
Cc1cnc(CC(=O)N2C[C@H](F)C[C@H]2C(=O)N[C@@H](c2ccccc2)c2ccc(C3CC(F)(F)C3)c(F)c2)o1 [Compound 550, (2S,4R)-N-[(S)-[4-(3,3-difluorocyclobutyl)-3-fluorophenyl](phenyl)methyl]-4-fluoro-1-[2-(5-methyl-1,3-oxazol-2-yl)acetyl]pyrrolidine-2-carboxamide]	42	650	> 100000
Cc1cn(CC(=O)N2C[C@H](F)C[C@H]2C(=O)N[C@@H](c2ccccc2)c2ccc(C3CC(F)(F)C3)c(F)c2)c(=O)[nH]c1=O [Compound 551, (2S,4R)-N-[(S)-[4-(3,3-difluorocyclobutyl)-3-fluorophenyl](phenyl)methyl]-4-fluoro-1-[2-(5-methyl-2,4-dioxo-1,2,3,4-tetrahydropyrimidin-1-yl)acetyl]pyrrolidine-2-carboxamide]	7	210	> 100000
O=C(N[C@@H](c1ccccc1)c1ccc(C2CC(F)(F)C2)c(F)c1)[C@@H]1C[C@@H](F)CN1C(=O)Cc1ncco1 [Compound 552, (2S,4R)-N-[(S)-[4-(3,3-difluorocyclobutyl)-3-fluorophenyl](phenyl)methyl]-4-fluoro-1-[2-(1,3-oxazol-2-yl)acetyl]pyrrolidine-2-carboxamide]	82	1120	> 100000
O=C(N[C@@H](c1ccccc1)c1ccc(C2CC(F)(F)C2)c(F)c1)[C@@H]1C[C@@H](F)CN1C(=O)Cc1[nH]nnc1C(F)(F)F [Compound 553, (2S,4R)-N-[(S)-[4-(3,3-difluorocyclobutyl)-3-fluorophenyl](phenyl)methyl]-4-fluoro-1-{2-[4-(trifluoromethyl)-1H-1,2,3-triazol-5-yl]acetyl}pyrrolidine-2-carboxamide]	8	400	> 100000
Cc1coc(CC(=O)N2C[C@H](F)C[C@H]2C(=O)N[C@@H](c2ccccc2)c2ccc(C3CC(F)(F)C3)c(F)c2)n1 [Compound 554, (2S,4R)-N-[(S)-[4-(3,3-difluorocyclobutyl)-3-fluorophenyl](phenyl)methyl]-4-fluoro-1-[2-(4-methyl-1,3-oxazol-2-yl)acetyl]pyrrolidine-2-carboxamide]	34	380	> 100000
Cc1cn(CC(=O)N2C[C@H](F)C[C@H]2C(=O)N[C@@H](c2ccccc2)c2ccc(C3(C)CC3)c(F)c2)c(=O)[nH]c1=O [Compound 556, (2S,4R)-4-fluoro-N—((S)-(3-fluoro-4-(1-methylcyclopropyl)phenyl)(phenyl)methyl)-1-(2-(5-methyl-2,4-dioxo-3,4-dihydropyrimidin-1(2H)-yl)acetyl)pyrrolidine-2-carboxamide]	27	760	> 100000

Second part, the compound after the results:

IC50 [1] [nM]	IC50 [2] [nM]	IC50 [3] [nM]	Structure (SMILES)
136	2460	> 100000	CC1(c2ccc([C@@H](NC(=O)[C@@H]3C[C@@H](F)CN3C(=O)Cc3cnn[nH]3)c3ccccc3)cc2F)CC1 [Compound 558, (2S,4R)-4-fluoro-N-[(S)-[3-fluoro-4-(1-methylcyclopropyl)phenyl](phenyl)methyl]-1-[2-(1H-1,2,3-triazol-5-yl)acetyl]pyrrolidine-2-carboxamide]
144	1800	> 100000	CC1(c2ccc([C@@H](NC(=O)[C@@H]3C[C@@H](F)CN3C(=O)COC(=O)N3CCC3)c3ccccc3)cc2F)CC1 [Compound 560, 2-[(2S,4R)-4-fluoro-2-{[(S)-[3-fluoro-4-(1-methylcyclopropyl)phenyl](phenyl)methyl]carbamoyl}pyrrolidin-1-yl]-2-oxoethyl azetidine-1-carboxylate]
36	870	> 100000	Cn1c(CC(=O)N2C[C@H](F)C[C@H]2C(=O)N[C@@H](c2ccccc2)c2ccc(C3(C)CC3)c(F)c2)cc2ccccc21 [Compound 561, (2S,4R)-4-fluoro-N-[(S)-[3-fluoro-4-(1-methylcyclopropyl)phenyl](phenyl)methyl]-1-[2-(1-methyl-1H-indol-2-yl)acetyl]pyrrolidine-2-carboxamide]
